We go through one molecule from patent US20130136772A1, “REGULATION OF IMMUNE RESPONSE BY COLOCYNTHIN AND/OR ITS DERIVATIVES” (priority 2010, published 2013).

Values joined by “and” are separate entries in the source; they are usually repeats but may differ in a detail not shown here. Equal entries are not always repeated.

The subject of assay [1] is Interleukin-1beta (IL-1β). Kind of assay: Extracellular IL-1β in LPS stimulated murine neutrophils (ELISA, in vitro). In kind it is cell-based. Particulars: for Concentration of IL-1β produced Mean ± S.E.: LPS 10 ng/ml, 4 hr. On the procedure: Neutrophils were separated from whole blood by Histopaque gradient method (Histopaque-No. 1077). Cell count was adjusted to approximately 10^5/[…]. Lipopolysaccharide, at the concentration of 10 ng/ml was used as stimulus in in-vitro studies. […] Extracellular IL-1β was estimated through ELISA (Table 2) [Weir, R. E., Morgan, A. R., Britton, W. J., Butlin, C. R., Dockrell, H. M., 1994. Development of a whole blood assay to measure T cell responses to leprosy: a new tool for immuno-epidemiological fields studies of leprosy immunity. J. Immunol. Methods. 176, 93; Hussain, R., Kaleem, A., Shahid, F., Dojki, M., Jamil, B., Mehmood, H., Dawood, G., Dockrell, H., 2002. Cytokine profiles using whole blood assays can discriminate between tuberculosis patients and healthy endemic controls in a BCG-vaccinated population. J. Immunol. Methods. 264, 95-108]
For orientation: An ELISA detects its analyte on a solid surface through an enzyme-linked reagent.

In assay [2] the test system is peritoneal murine macrophages. Kind of assay: Phagocytosis of heat killed Candida albicans by murine macrophages (in vitro). In kind it is cell-based. On the procedure:
The method of Lehrer (1981) [Lehrer, R. I. Ingestion and destruction of Candida albicans. (1981) In: Methods for studying mono-nuclear phagocytes. Eds. Adams, D. O., Edelson, P. J. and Koren, H. (Academic Press, New York) 693-7081 was followed. The percentage and average number of Candida albicans cells (heatkilled) ingested by peritoneal murine macrophages was calculated. AD-B-63B was tested at the doses of 1, 2.5, Sand 10 μg/mL (Table 4).

Another assay has as its system Nitric oxide (NO). As to the kind of experiment: In vivo nitric oxide estimation in serum of LPS challenged mice. The arrangement: species or system balb/c mice. Particulars: 1, 2.5, 5 and 10 mg/kg oral for 6 days, LPS 1 mg/kg i.v., serum 90 min after LPS. As for the experimental part: Invivo experiments were carried out using balb/c mice that were orally administrated with graded oral doses of AD-B-63B (1, 2.5, 5 and 10 mg/kg) for 6 days and challenged with LPS. Nitric oxide (NO) is an important mediator of diverse physiologic and pathologic processes, including many inflammatory diseases [Abramson S B, Amin A R, Clancy R M, Attur M, (2001). The role of nitric oxide in tissue destruction. Best Practice & Research Clinical Rheumatology; 15: 831-845]. Several lines of evidence implicate NO in the pathogenesis of inflammation. For example, rodents in animal models of arthritis generate abundant quantities of NO, as reflected in high levels of serum and urinary NO that develop in association with disease manifestations [Stefanovic-Racic M, Meyers K, Meschter C, Coffey J W, Hoffman R A, Evans C H, (1994). Monomethyl arginine, an inhibitor of nitric oxide synthase, suppresses the development of adjuvant arthritis in rats. Arthritis & Rheumatism; 37: 1062-1069.] [McCartney-Francis N, Allen J B, Mizel D E, Albina J E, Xie Q W, Nathan C F, Wahl S M, (1993). Suppression of arthritis by an inhibitor of nitric oxide synthase. Journal of Experimental Medicine; 178: 749-754.] [Weinberg J B, (1998). […] TNF-α, IL-1 beta and Nitric oxide production was evaluated by a commercial ELISA kits (R&D Systems) in serum from AD-B-63B treated mice, 90 min after LPS injection.

As for `CC(=O)OC(C)(C)/C=C/C(=O)[C@](C)(O)[C@H]1[C@H](O)C[C@@]2(C)[C@@H]3CC=C4[C@@H](C=C(O[C@@H]5O[C@H](CO)[C@@H](O)[C@H](O)[C@H]5O)C(=O)C4(C)C)[C@]3(C)C(=O)C[C@]12C` [AD-B-63B, 2-O-β-D-glucopyranosyl cucurbitacin E], the “% activity IL-1β expression against LPS control (decrease)” value in assay [1] (0.5 μg/ml) was 10.25↓ %; in assay [1] (1 μg/ml), 18.66↓ %; in assay [1] (5.0 μg/ml) it was 30.90% and 30.90↓ %; in assay [1] (10.0 μg/ml), 34.96% and 34.96↓ %. Further, the “Concentration of IL-1β produced Mean ± S.E.” value in assay [1] (0.5 μg/ml) turned out to be 120.91 ± 2.61 pg/mL; in assay [1] (1 μg/ml) it was 109.58 ± 3.21 pg/mL; in assay [1] (5.0 μg/ml), 93.08 ± 2.61 pg/mL; in assay [1] (10.0 μg/ml), 87.61 ± 1.99 pg/mL; in assay [1] ([…]), 106.66 ± 2.44 pg/mL. Moreover, the “% phagocytosis [in vitro study] Mean ± S.E.” value in assay [2] (1 μg/ml) was 24.00 ± 2.32%; in assay [2] (5 μg/ml), 18.22 ± 2.11%; in assay [2] (10 μg/ml), 17.33 ± 1.42%. Besides, the “percent decrease in phagocytosis” value in assay [2] (1 μg/ml) is recorded as “(10.48%↓)”. For the same molecule, the “Level of serum NO” value with Nitric oxide (NO) is given as “significant reduction”.
